Values quoted from earlier work in publication PMC6318274, “Lattice engineering enables definition of molecular features allowing for potent small-molecule inhibition of HIV-1 entry” (Nature Communications, 2019).
Read-outs that look alike come from different tables or passages of the source.

Test system: HIV-1 Env-pseudoviruses (208-strain panel)
Conditions: cited from earlier work

COc1cnc(-n2cnc(C)n2)c2[nH]cc(C(=O)C(=O)N3CCN(C(=O)c4ccccc4)CC3)c12 [BMS-626529]
IC50 (45_01dG5, clade B, read-out: IC50): 0.4 nM | IC50 (0077.v1.c16, clade C, read-out: IC50): 2 nM | IC50 (89.6.DG, clade B, read-out: IC50): 2 nM | IC50 (96ZM651.02, clade C, read-out: IC50): 4 nM | IC50 (208-strain panel, read-out: Geometric mean IC50): 15.9 nM | IC50 (208-strain panel, read-out: Median IC50): 9 nM | IC50 (235-47, clade AG, read-out: IC50): 1 nM | IC50 (242-14, clade AG, read-out: IC50): 23 nM | IC50 (246-F3.C10.2, clade AC, read-out: IC50): 200 nM | IC50 (247-23, clade D, read-out: IC50): 11 nM | IC50 (0260.v5.c36, clade A, read-out: IC50): 29 nM | IC50 (263-8, clade AG, read-out: IC50): 2 nM | IC50 (269-12, clade AG, read-out: IC50): 15100 nM | IC50 (271-11, clade AG, read-out: IC50): > 20000 nM | IC50 (286.36, clade C, read-out: IC50): 1 nM | IC50 (288.38, clade C, read-out: IC50): 3 nM | IC50 (0330.v4.c3, clade A, read-out: IC50): 98 nM | IC50 (398-F1.F6.20, clade A, read-out: IC50): 372 nM | IC50 (426c, clade C, read-out: IC50): 30 nM | IC50 (0439.v5.c1, clade A, read-out: IC50): 9 nM | IC50 (0815.v3.c3, clade ACD, read-out: IC50): 2 nM | IC50 (00836-2.5, clade C, read-out: IC50): > 20000 nM | IC50 (0921.v2.c14, clade C, read-out: IC50): 0.9 nM | IC50 (928-28, clade AG, read-out: IC50): 2080 nM | IC50 (001428-2.42, clade C, read-out: IC50): 49 nM | IC50 (3016.v5.c45, clade D, read-out: IC50): 0.5 nM | IC50 (3168.v4.c10, clade C, read-out: IC50): 1 nM | IC50 (3301.v1.c24, clade AC, read-out: IC50): 15 nM | IC50 (3326.v4.c3, clade CD, read-out: IC50): 0.3 nM | IC50 (3337.v2.c6, clade CD, read-out: IC50): 1 nM | IC50 (3365.v2.c20, clade A, read-out: IC50): 1920 nM | IC50 (3415.v1.c1, clade A, read-out: IC50): 5 nM | IC50 (3468.v1.c12, clade AD, read-out: IC50): 7 nM | IC50 (3589.v1.c4, clade AC, read-out: IC50): 1 nM | IC50 (3637.v5.c3, clade C, read-out: IC50): 1 nM | IC50 (3718.v3.c11, clade A, read-out: IC50): 10 nM | IC50 (3817.v2.c59, clade CD, read-out: IC50): 48 nM | IC50 (3873.v1.c24, clade C, read-out: IC50): 0.6 nM | IC50 (3988.25, clade B, read-out: IC50): 1 nM | IC50 (5768.04, clade B, read-out: IC50): 3 nM | IC50 (6095.v1.c10, clade ACD, read-out: IC50): 1 nM | IC50 (6101.10, clade B, read-out: IC50): 1 nM | IC50 (6322.v4.c1, clade C, read-out: IC50): 91 nM | IC50 (6405.v4.c34, clade D, read-out: IC50): 2470 nM | IC50 (6471.v1.c16, clade C, read-out: IC50): 2 nM | IC50 (6535.3, clade B, read-out: IC50): 0.3 nM | IC50 (6540.v4.c1, clade AC, read-out: IC50): 41 nM | IC50 (6545.v4.c1, clade AC, read-out: IC50): 32 nM | IC50 (6631.v3.c10, clade C, read-out: IC50): 3 nM | IC50 (6644.v2.c33, clade C, read-out: IC50): 71 nM | IC50 (6785.v5.c14, clade C, read-out: IC50): 292 nM | IC50 (6838.v1.c35, clade C, read-out: IC50): 19 nM | IC50 (7165.18, clade B, read-out: IC50): 29 nM | IC50 (0013095-2.11, clade C, read-out: IC50): 5 nM | IC50 (16055-2.3, clade C, read-out: IC50): 3 nM | IC50 (16845-2.22, clade C, read-out: IC50): 1 nM | IC50 (16936-2.21, clade C, read-out: IC50): 6 nM | IC50 (25710-2.43, clade C, read-out: IC50): 2 nM | IC50 (25711-2.4, clade C, read-out: IC50): 13 nM | IC50 (25925-2.22, clade C, read-out: IC50): 2 nM | IC50 (26191-2.48, clade C, read-out: IC50): 2 nM | IC50 (57128.vrc15, clade D, read-out: IC50): 6 nM | IC50 (191821.E6.1, clade D, read-out: IC50): 0.8 nM | IC50 (231965.c01, clade D, read-out: IC50): 1 nM | IC50 (620345.c1, clade AE, read-out: IC50): 4130 nM | IC50 (A07412M1.vrc12, clade D, read-out: IC50): 8 nM | IC50 (AC10.29, clade B, read-out: IC50): 3 nM | IC50 (ADA.DG, clade B, read-out: IC50): 3 nM | IC50 (BB201.B42, clade A, read-out: IC50): 242 nM | IC50 (BB539.2B13, clade A, read-out: IC50): 7 nM | IC50 (BG1168.01, clade B, read-out: IC50): 13 nM | IC50 (BI369.9A, clade A, read-out: IC50): 6 nM | IC50 (BJOX002000.03.2, clade BC, read-out: IC50): 5 nM | IC50 (BJOX009000.02.4, clade AE, read-out: IC50): 5130 nM | IC50 (BJOX010000.06.2, clade AE, read-out: IC50): > 20000 nM | IC50 (BJOX025000.01.1, clade AE, read-out: IC50): > 20000 nM | IC50 (BJOX028000.10.3, clade AE, read-out: IC50): > 20000 nM | IC50 (BL01.DG, clade B, read-out: IC50): > 20000 nM | IC50 (BR07.DG, clade B, read-out: IC50): 786 nM | IC50 (BR025.9, clade C, read-out: IC50): > 20000 nM | IC50 (BS208.B1, clade A, read-out: IC50): 17 nM | IC50 (BX08.16, clade B, read-out: IC50): 2 nM | IC50 (BaL.26, clade B, read-out: IC50): 0.8 nM | IC50 (Bal.01, clade B, read-out: IC50): 1 nM | IC50 (C1080.c3, clade AE, read-out: IC50): > 20000 nM | IC50 (C2101.c1, clade AE, read-out: IC50): > 20000 nM | IC50 (C3347.c11, clade AE, read-out: IC50): 18100 nM | IC50 (C4118.09, clade AE, read-out: IC50): 4040 nM | IC50 (CAAN.A2, clade B, read-out: IC50): 1 nM | IC50 (CAP45.G3, clade C, read-out: IC50): 32 nM | IC50 (CAP210.E8, clade C, read-out: IC50): 77 nM | IC50 (CAP244.D3, clade C, read-out: IC50): 7 nM | IC50 (CE703010217.B6, clade C, read-out: IC50): 2 nM | IC50 (CH038.12, clade BC, read-out: IC50): 329 nM | IC50 (CH070.1, clade BC, read-out: IC50): 23 nM | IC50 (CH117.4, clade BC, read-out: IC50): 26 nM | IC50 (CH119.10, clade BC, read-out: IC50): 4 nM | IC50 (CH181.12, clade BC, read-out: IC50): 1 nM | IC50 (CM244.ec1, clade AE, read-out: IC50): > 20000 nM | IC50 (CNE3, clade AE, read-out: IC50): 8520 nM | IC50 (CNE4, clade B, read-out: IC50): > 20000 nM | IC50 (CNE5, clade AE, read-out: IC50): 12700 nM | IC50 (CNE7, clade BC, read-out: IC50): 13 nM | IC50 (CNE8, clade AE, read-out: IC50): > 20000 nM | IC50 (CNE10, clade B, read-out: IC50): 0.5 nM | IC50 (CNE12, clade B, read-out: IC50): 1 nM | IC50 (CNE14, clade B, read-out: IC50): 230 nM | IC50 (CNE15, clade BC, read-out: IC50): 0.9 nM | IC50 (CNE19, clade BC, read-out: IC50): 2 nM
